The record followed here is paper PMC12368479, “Inhibition of the Clathrin Terminal Domain—Amphiphysin Protein–Protein Interaction. Probing the Pitstop 2 Aromatic Moiety” (Chemmedchem, 2025).

Assay [1] has as its target T1, clathrin heavy chain NTD (amino acids 1–364) – amphiphysin 1 B/C domain protein–protein interaction (NTD‐PPI) (Homo sapiens, UniProt Q00610).
T1 construct: GST‐tagged clathrin heavy chain NTD (amino acids 1–364); made in house
T1 sequence (Q00610 1-364): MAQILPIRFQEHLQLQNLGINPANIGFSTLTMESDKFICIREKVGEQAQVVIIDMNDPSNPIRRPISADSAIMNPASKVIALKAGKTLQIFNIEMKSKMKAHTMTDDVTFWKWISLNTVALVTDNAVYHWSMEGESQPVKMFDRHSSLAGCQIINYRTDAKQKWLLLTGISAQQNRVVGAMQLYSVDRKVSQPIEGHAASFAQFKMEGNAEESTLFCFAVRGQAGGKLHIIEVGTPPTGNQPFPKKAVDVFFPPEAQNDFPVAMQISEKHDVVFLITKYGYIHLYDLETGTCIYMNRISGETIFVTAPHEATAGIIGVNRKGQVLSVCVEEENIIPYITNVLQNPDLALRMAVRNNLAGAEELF
Description: ELISA-based clathrin inhibitor binding assay (NTD-PPI). The method, then: The clathrin inhibitor assay was based inhibition of protein–protein interaction (PPI) between clathrin and amphiphysin as described in our previous report.^[ [45], [54] ^] Bacterially expressed recombinant purified His6‐tagged amphiphysin 1 B/C domain (which comprises both the clathrin and the AP‐2 binding sites, amino acids 250‐578^[ [55] ^]) in screening buffer (20 mM HEPES, pH 7.4, 50 mM NaCl, 1 mM DTT, 1 mM PMSF) was added to a 384 well ELISA plate (Corning Maxisorp 3700) and bound to the plastic for 1 h at room temperature. […] Following extensive washes (with 20 mM HEPES, pH 7.4, 50 mM NaCl, 0.05% Tween 20), chemical compounds diluted in DMSO (10 μL) were added and incubated together with bacterially expressed recombinant GST‐tagged clathrin heavy chain NTD (amino acids 1–364) for 1 h at room temperature in screening buffer. After 3 washes, horseradish peroxidase‐coupled anti‐GST antibodies were added in screening buffer and the plate incubated for 40 min at room temperature. Following additional washes, 50 μL TMB (3,3′,5,5′‐tetramethylbenzidine) (Pierce Biotechnology) chromogenic substrate of horseradish peroxidase was added, and the plate was incubated for 10 min before the reaction was terminated by adding 50 μL 1N sulfuric acid to produce a yellow colour. The amount of bound protein was determined by spectrophotometric measurement in a plate reader. Relative binding was calculated as a percentage of DMSO control.

Assay [2] has as its target T2, full length human Dynamin I (Homo sapiens, UniProt Q05193).
T2 construct: full length human Dynamin I expressed in Sf21 insect cells; made in house; host or cells: Sf21 insect cells
T2 sequence (Q05193 1-864): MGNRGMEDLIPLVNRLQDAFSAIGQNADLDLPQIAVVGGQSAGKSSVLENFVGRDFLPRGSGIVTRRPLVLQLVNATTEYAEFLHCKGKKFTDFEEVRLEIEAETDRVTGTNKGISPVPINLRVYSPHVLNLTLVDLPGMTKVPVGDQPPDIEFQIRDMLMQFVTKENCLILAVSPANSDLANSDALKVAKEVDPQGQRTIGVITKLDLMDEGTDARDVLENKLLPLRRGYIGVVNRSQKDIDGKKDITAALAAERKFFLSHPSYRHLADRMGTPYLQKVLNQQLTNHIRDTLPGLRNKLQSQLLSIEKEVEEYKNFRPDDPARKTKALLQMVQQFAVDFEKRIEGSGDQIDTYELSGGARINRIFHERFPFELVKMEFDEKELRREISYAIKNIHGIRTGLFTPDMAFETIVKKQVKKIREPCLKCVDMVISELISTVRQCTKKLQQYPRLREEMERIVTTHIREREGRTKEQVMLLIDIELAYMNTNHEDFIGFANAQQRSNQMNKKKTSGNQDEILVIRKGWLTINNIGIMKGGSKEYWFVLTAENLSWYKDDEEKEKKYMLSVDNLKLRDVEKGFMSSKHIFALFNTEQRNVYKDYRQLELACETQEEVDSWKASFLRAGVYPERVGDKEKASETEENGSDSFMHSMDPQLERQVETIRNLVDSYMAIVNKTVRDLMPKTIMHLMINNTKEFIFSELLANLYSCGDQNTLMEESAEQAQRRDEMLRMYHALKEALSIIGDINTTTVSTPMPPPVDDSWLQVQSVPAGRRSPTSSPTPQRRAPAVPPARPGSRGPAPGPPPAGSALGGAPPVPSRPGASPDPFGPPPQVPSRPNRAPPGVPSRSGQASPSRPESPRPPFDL
Description: Dynamin GTPase activity, Malachite Green phosphate detection assay. It counts as biochemical. The method, then:
Dynamin GTPase activity was determined in vitro using the Malachite Green phosphate detection absorbance‐based assay within a 96‐well plate format as described previously. The enzyme source was full length human Dynamin I expressed in Sf21 insect cells and affinity‐purified on GST‐Amph2‐SH3 (rat Amphiphysin 2 (494–588)).^[ [56] ^]

In assay [3] the test system is transferrin uptake (CME) in U2OS osteosarcoma cells. Nature of the assay: Clathrin-mediated endocytosis assay: transferrin (Tfn) uptake in U2OS cells. Particulars: for IC50 / inhibition at 5 µM / inhibition at 50 µM: Homo sapiens, U2OS; for inhibition at 5 µM: read-out: 2-point CME (% Inhibition) 5 µM; for inhibition at 50 µM: read-out: 2-point CME (% Inhibition) 50 µM. It counts as cell-based. As for the experimental part:
Using our previously reported CME assay in U2OS cells, the ability of these compounds to block endocytosis was examined (Table 5 ).^[ [48], [49] ^]
CME was examined by a high‐throughput, quantitative assay for measuring transferrin (Tfn) uptake in U2OS osteosarcoma cells, based on methods described previously.^[ [48] ^]
Compounds were made up fresh from powder stock just prior to commencing the assay, and stock solutions were stored at −20 °C for several months.

Setting [4] is: Table 5, ELISA, read-out: NTD‐PPI IC50.
Setting [5] is: Table 1, library 1, n = 1 unless noted (19: n = 2), '–' = not active at 150 μM, read-out: Dyn 1 IC50.
Setting [6] is: Table 5, dynamin GTPase, n = 1 or n = 2 as footnoted, NA = not active at 100 μM, read-out: Dynamin 1 IC50.
The mark [7] stands for this setting: Table 5, inhibition of transferrin‐red uptake in U2OS cells, '–'/NA = not active at 100 μM.
[8] abbreviates: Table 3, library 3, n = 1 unless otherwise stated (41, 42: n = 2), '–' = not active at 100 μM, read-out: Dynamin 1 IC50.
The mark [9] stands for this setting: Table S1, preliminary (n=1) unless otherwise noted, NA = not active, includes IC50 > 150 μM, read-out: Dynamin 1 IC50.
[10] abbreviates: Table 4, library 4, ELISA, average of duplicate measurements (n = 2), read-out: NTD‐PPI IC50.
Setting [11] is: Table 4, library 4, n = 1 or n = 2 as footnoted, '–' = not active at 100 μM, read-out: Dynamin 1 IC50.
Where [12] appears, read: values quoted in running text (section 2.2), read-out: Dynamin IC50.

Where “and” joins values, the source holds several entries; their conditions need not be identical. Equal values may be shown once. Read-outs that look alike come from different tables or passages of the source.

Consider `O=C1N=C(NS(=O)(=O)c2cccc3ccccc23)S/C1=C\c1ccc([N+](=O)[O-])cc1` [compound 13, (Z)‐N‐(5‐(4‐nitrobenzylidene)‐4‐oxo‐4,5‐dihydrothiazol‐2‐yl)naphthalene‐1‐sulfonamide], for which the IC50 was 5.2 µM in assay [1] (Table 1, library 1, ELISA, average of duplicate measurements (n=2), read-out: NTD‐PPI IC50); 5.2 µM in assay [1] (setting [4]); around 56 µM in assay [2] (setting [5]); 55.8 µM in assay [2] (setting [6]); around 14.6 µM in assay [3] (setting [7]). The “CME activity compared with Pitstop 2” value in assay [3] (U2OS cells, in words) was “comparable”.
For `O=C1N=C(NS(=O)(=O)c2cccc3ccccc23)SC1=Cc1ccc(-c2ccccc2)cc1` [compound 18, N‐(5‐([1,1'‐biphenyl]‐4‐ylmethylene)‐4‐oxo‐4,5‐dihydrothiazol‐2‐yl)naphthalene‐1‐sulfonamide], the IC50 is 1.4 µM in assay [1] (setting [4]), 85 µM in assay [2] (setting [5]), 85.3 µM in assay [2] (setting [6]) and around 43.1 µM in assay [3] (setting [7]).
For the compound `O=C1N=C(NS(=O)(=O)c2cccc3ccccc23)S/C1=C\C1CCCC1` [compound 41, (Z)‐N‐(5‐(cyclopentylmethylene)‐4‐oxo‐4,5‐dihydrothiazol‐2‐yl)naphthalene‐1‐sulfonamide], the IC50 was above 100 µM in assay [2] (setting [8]) and above 150 µM in assay [2] (setting [9]). Further, the inhibition at 5 µM in assay [3] stood at 11%.
`CCCC/C=C1\SC(NS(=O)(=O)c2cccc3ccccc23)=NC1=O` [compound 42, (Z)‐N‐(4‐oxo‐5‐pentylidene‐4,5‐dihydrothiazol‐2‐yl)naphthalene‐1‐sulfonamide]: the IC50 in assay [1] (Table 3, library 3, ELISA, average of duplicate measurements (n = 2), read-out: NTD‐PPI IC50) was 6.5 µM; in assay [2] (setting [8]), above 100 µM; in assay [2] (setting [9]), above 150 µM. Moreover, in assay [3], the inhibition at 5 µM came to 0%. Also, in assay [3], the inhibition at 50 µM worked out at 31%.
Take `O=C1N=C(NS(=O)(=O)c2cccc3ccccc23)S/C1=C\c1ccoc1` [compound 46, (Z)‐N‐(5‐(furan‐3‐ylmethylene)‐4‐oxo‐4,5‐dihydrothiazol‐2‐yl)naphthalene‐1‐sulfonamide]: the IC50 in assay [1] (setting [10]) was 2.11 µM; in assay [1] (setting [4]) it was 2.11 µM; in assay [3] (setting [7]), 31.5 ± 9.2 µM.
On to `O=C1N=C(NS(=O)(=O)c2cccc3ccccc23)S/C1=C\c1ccc(Cl)o1` [compound 49, (Z)‐N‐(5‐((5‐chlorofuran‐2‐yl)methylene)‐4‐oxo‐4,5‐dihydrothiazol‐2‐yl)naphthalene‐1‐sulfonamide], for which the IC50 was 3.31 µM in assay [1] (setting [10]); 3.31 µM in assay [1] (setting [4]); 3.3 µM in assay [1] (read-out: NTD‐PPI IC50 (ELISA)); 52.6 ± 9.1 µM in assay [3] (setting [7]); above 50 µM in assay [3] (U2OS cells).
Take `O=C1N=C(NS(=O)(=O)c2cccc3ccccc23)S/C1=C\c1ccc(CO)o1` [compound 51, (Z)‐N‐(5‐((5‐(hydroxymethyl)furan‐2‐yl)methylene)‐4‐oxo‐4,5‐dihydrothiazol‐2‐yl)naphthalene‐1‐sulfonamide]: the “NTD‐PPI activity relative to halogenated furans (49, 50)” value in assay [1] (ELISA, in words) was “threefold less active”. For the same compound, the IC50 in assay [1] (setting [10]) is 6.33 µM; in assay [1] (setting [4]), 6.33 µM; in assay [1] (read-out: NTD‐PPI IC50 (ELISA)), 6.3 µM; in assay [3] (setting [7]) it was around 156 µM; in assay [3] (U2OS cells), above 50 µM.
For `O=C1N=C(NS(=O)(=O)c2cccc3ccccc23)S/C1=C\c1ccc2c(c1)OCCO2` [compound 54, (Z)‐N‐(5‐((2,3‐dihydrobenzo[b][1,4]dioxin‐6‐yl)methylene)‐4‐oxo‐4,5‐dihydrothiazol‐2‐yl)naphthalene‐1‐sulfonamide], the “fold activity increase (NTD‐PPI) relative to 56” value in assay [1] (ELISA) is above 3 fold. For the same compound, the IC50 in assay [1] (setting [10]) was 1.2 µM; in assay [1] (setting [4]) it was 1.2 µM; in assay [1] (read-out: NTD‐PPI IC50 (ELISA)), 1.16 µM; in assay [2] (setting [11]), 60.1 ± 8.6 µM; in assay [2] (setting [6]), 60.1 ± 8.6 µM; in assay [2] (setting [12]) it was 60 µM. The same compound had an IC50 in assay [3] (setting [7]) of around 35 µM. Moreover, in assay [3] (U2OS cells, in words), the “CME activity compared with Pitstop 2” value is “threefold decrease”.
In the case of `O=C1N=C(NS(=O)(=O)c2cccc3ccccc23)S/C1=C\C1=Cc2ccccc2OC1` [compound 55, (Z)‐N‐(5‐((2H‐chromen‐3‐yl)methylene)‐4‐oxo‐4,5‐dihydrothiazol‐2‐yl)naphthalene‐1‐sulfonamide], the IC50 in assay [2] (setting [11]) came out at 69.3 ± 7.1 µM; in assay [2] (setting [12]), 69 µM. Further, the inhibition at 5 µM in assay [3] stood at 0%. Besides, the inhibition at 50 µM in assay [3] amounted to 40%.
As to `O=C1N=C(NS(=O)(=O)c2cccc3ccccc23)S/C1=C\c1ccc2c(c1)OCO2` [compound 56, (Z)‐N‐(5‐(benzo[d][1,3]dioxol‐5‐ylmethylene)‐4‐oxo‐4,5‐dihydrothiazol‐2‐yl)naphthalene‐1‐sulfonamide], the “NTD‐PPI activity relative to 54” value in assay [1] (ELISA, in words) is “threefold less active”. Further, the IC50 was 3.2 µM in assay [1] (setting [10]); 3.2 µM in assay [1] (setting [4]); < 5 µM and 4 µM in assay [1] (read-out: NTD‐PPI IC50 (ELISA)); above 100 µM in assay [2] (setting [11]); 19.4 ± 10.5 µM in assay [3] (setting [7]). The “CME activity compared with Pitstop 2” value in assay [3] (U2OS cells, in words) was “comparable”. Moreover, the “CME inhibition relative to dihydrobenzofuran 57” value in assay [3] (U2OS cells, in words) was “threefold increase”.
With `O=C1N=C(NS(=O)(=O)c2cccc3ccccc23)S/C1=C\c1ccc2nsnc2c1` [compound 58, (Z)‐N‐(5‐(benzo[c][1,2,5]thiadiazol‐5‐ylmethylene)‐4‐oxo‐4,5‐dihydrothiazol‐2‐yl)naphthalene‐1‐sulfonamide], the IC50 in assay [2] (setting [11]) was around 69.3 µM; in assay [2] (setting [6]), around 69.3 µM; in assay [3] (setting [7]), 16.8 ± 7.9 µM. The “CME activity compared with Pitstop 2” value in assay [3] (U2OS cells, in words) is on record as “comparable”.
`O=C1N=C(NS(=O)(=O)c2cccc3ccccc23)S/C1=C\c1c[nH]c2ccc(Cl)cc12` [compound 66, (Z)‐N‐(5‐((5‐chloro‐1H‐indol‐3‐yl)methylene)‐4‐oxo‐4,5‐dihydrothiazol‐2‐yl)naphthalene‐1‐sulfonamide]: the IC50 in assay [2] (setting [11]) is above 100 µM; in assay [2] (setting [9]) it was above 150 µM. Besides, in assay [3], the inhibition at 5 µM amounted to 2%.
